# Measured values: PubChem BioAssay AID1963963 (Molecular Pharmacology Branch, DTP, NCI, 2024)
# Where “and” joins values, the source holds several entries; their conditions need not be identical. Equal entries are not always repeated.
# Test system: 958667-338-R-J2-PDC tumor spheroids viability
# Experiment: Anticancer human tumor 958667-338-R-J2-PDC patient-derived colon adenocarcinoma cell line growth inhibition [PI3K]
# Details: spheroids with HUVEC and MSC; for viability, T/C: stronger effect = lower value
# Procedure, shortened: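 Multi-cell spheroids combine tumor cells with HUVEC and human MSCs, treated with targeted agents alone or with inavolisib, alpelisib, duvelisib or copanlisib. Concentrations fall in half-log steps from at or near clinical Cmax, or from 10 microM where Cmax is unknown; viability read-out.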
# [1] = curve of first compound, second compound 0.0316 µM
# [2] = curve of first compound, second compound 0.1 µM
# [3] = curve of first compound, second compound 0.316 µM
# [4] = curve of first compound, second compound 1 µM
# [5] = curve of first compound, second compound 3.16 µM
# [6] = curve of first compound, second compound 10 µM
# [7] = second compound 0.0316 µM, first compound 0.0316 µM
# [8] = second compound 0.0316 µM, first compound 0.1 µM
# [9] = second compound 0.0316 µM, first compound 0.316 µM
# [10] = second compound 0.0316 µM, first compound 1 µM
# [11] = second compound 0.0316 µM, first compound 3.16 µM
# [12] = second compound 0.0316 µM, first compound 10 µM
# [13] = second compound 0.1 µM, first compound 0.0316 µM
# [14] = second compound 0.1 µM, first compound 0.1 µM
# [15] = second compound 0.1 µM, first compound 0.316 µM
# [16] = second compound 0.1 µM, first compound 1 µM
# [17] = second compound 0.1 µM, first compound 3.16 µM
# [18] = second compound 0.1 µM, first compound 10 µM
# [19] = second compound 0.316 µM, first compound 0.0316 µM
# [20] = second compound 0.316 µM, first compound 0.1 µM
# [21] = second compound 0.316 µM, first compound 0.316 µM
# [22] = second compound 0.316 µM, first compound 1 µM
# [23] = second compound 0.316 µM, first compound 3.16 µM
# [24] = second compound 0.316 µM, first compound 10 µM
# [25] = second compound 1 µM, first compound 0.0316 µM
# [26] = second compound 1 µM, first compound 0.1 µM
# [27] = second compound 1 µM, first compound 0.316 µM
# [28] = second compound 1 µM, first compound 1 µM
# [29] = second compound 1 µM, first compound 3.16 µM
# [30] = second compound 1 µM, first compound 10 µM
# [31] = second compound 3.16 µM, first compound 0.0316 µM
# [32] = second compound 3.16 µM, first compound 0.1 µM
# [33] = second compound 3.16 µM, first compound 0.316 µM
# [34] = second compound 3.16 µM, first compound 1 µM
# [35] = second compound 3.16 µM, first compound 3.16 µM
# [36] = second compound 3.16 µM, first compound 10 µM
# [37] = second compound 10 µM, first compound 0.0316 µM
# [38] = second compound 10 µM, first compound 0.1 µM
# [39] = second compound 10 µM, first compound 0.316 µM
# [40] = second compound 10 µM, first compound 1 µM
# [41] = second compound 10 µM, first compound 3.16 µM
# [42] = second compound 10 µM, first compound 10 µM
# 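Further: spheroids exposed to compounds for seven days before readout.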
structure (smiles),measurement,setting,value
CC(C)NCC(C(=O)N1CCN(c2ncnc3c2C(C)CC3O)CC1)c1ccc(Cl)cc1 (stereo not given) + Cc1nc(NC(=O)N2CCCC2C(N)=O)sc1-c1ccnc(C(C)(C)C(F)(F)F)c1,IC50,[1],> 10 µM
same,IC50,[2],> 10 µM
same,IC50,[3],> 10 µM
same,IC50,[4],> 10 µM
same,IC50,[5],8.17 µM
same,IC50,[6],2.36 µM
same,"viability, T/C",[7],108%
same,"viability, T/C",[8],99.3%
same,"viability, T/C",[9],96.3%
same,"viability, T/C",[10],104%
same,"viability, T/C",[11],91.8%
same,"viability, T/C",[12],64.6%
same,"viability, T/C",[13],99.4%
same,"viability, T/C",[14],110%
same,"viability, T/C",[15],95.6%
same,"viability, T/C",[16],102%
same,"viability, T/C",[17],102%
same,"viability, T/C",[18],60.7%
same,"viability, T/C",[19],90.7%
same,"viability, T/C",[20],103%
same,"viability, T/C",[21],104%
same,"viability, T/C",[22],85.2%
same,"viability, T/C",[23],86.9%
same,"viability, T/C",[24],62.1%
same,"viability, T/C",[25],107%
same,"viability, T/C",[26],74.2%
same,"viability, T/C",[27],87.4%
same,"viability, T/C",[28],75.5%
same,"viability, T/C",[29],89.9%
same,"viability, T/C",[30],73.5%
same,"viability, T/C",[31],74.7%
same,"viability, T/C",[32],68.3%
same,"viability, T/C",[33],71.8%
same,"viability, T/C",[34],76.7%
same,"viability, T/C",[35],68.5%
same,"viability, T/C",[36],45.9%
same,"viability, T/C",[37],57.8%
same,"viability, T/C",[38],66.5%
same,"viability, T/C",[39],57.2%
same,"viability, T/C",[40],62.5%
same,"viability, T/C",[41],46.2%
same,"viability, T/C",[42],35.9%
CC1(C)CCC(Nc2ncc(C(F)(F)F)c(-c3c[nH]c4c(P(C)(C)=O)c(C#N)ccc34)n2)CN1 (stereo not given) + Cc1nc(NC(=O)N2CCCC2C(N)=O)sc1-c1ccnc(C(C)(C)C(F)(F)F)c1,IC50,[1],6.39 µM
same,IC50,[2],4.53 µM
same,IC50,[3],4.09 µM
same,IC50,[4],3.33 µM
same,IC50,[5],2.58 µM
same,IC50,[6],1.04 µM
same,"viability, T/C",[7],108%
same,"viability, T/C",[8],136%
same,"viability, T/C",[9],84%
same,"viability, T/C",[10],72.4%
same,"viability, T/C",[11],71.4%
same,"viability, T/C",[12],39%
same,"viability, T/C",[13],140%
same,"viability, T/C",[14],112%
same,"viability, T/C",[15],83.5%
same,"viability, T/C",[16],72.2%
same,"viability, T/C",[17],55.9%
same,"viability, T/C",[18],40.3%
same,"viability, T/C",[19],119%
same,"viability, T/C",[20],79.5%
same,"viability, T/C",[21],96.2%
same,"viability, T/C",[22],59.4%
same,"viability, T/C",[23],67.1%
same,"viability, T/C",[24],30.9%
same,"viability, T/C",[25],103%
same,"viability, T/C",[26],82%
same,"viability, T/C",[27],86.5%
same,"viability, T/C",[28],67.6%
same,"viability, T/C",[29],55.2%
same,"viability, T/C",[30],22.8%
same,"viability, T/C",[31],80.5%
same,"viability, T/C",[32],83.9%
same,"viability, T/C",[33],73.5%
same,"viability, T/C",[34],55.3%
same,"viability, T/C",[35],52.6%
same,"viability, T/C",[36],25.2%
same,"viability, T/C",[37],77.5%
same,"viability, T/C",[38],63.2%
same,"viability, T/C",[39],45.5%
same,"viability, T/C",[40],57.1%
same,"viability, T/C",[41],44.3%
same,"viability, T/C",[42],14.5%
CC(C)n1nc(-c2ccc3oc(N)nc3c2)c2c(N)ncnc21 + CC(Nc1ncnc2nc[nH]c12)c1cc2cccc(Cl)c2c(=O)n1-c1ccccc1,IC50,[1],0.0749 µM
same,IC50,[2],0.0717 µM
same,IC50,[3],0.0779 µM
same,IC50,[4],0.0829 µM
same,IC50,[5],0.0593 µM
same,IC50,[6],0.0614 µM
same,"viability, T/C","second compound 0.0316 µM, first compound 0.000316 µM",96.8%
same,"viability, T/C","second compound 0.0316 µM, first compound 0.001 µM",95.3%
same,"viability, T/C","second compound 0.0316 µM, first compound 0.00316 µM",98.5%
same,"viability, T/C","second compound 0.0316 µM, first compound 0.01 µM",112%
same,"viability, T/C",[7],73.6%
same,"viability, T/C",[8],42.1%
same,"viability, T/C","second compound 0.1 µM, first compound 0.000316 µM",127%
same,"viability, T/C","second compound 0.1 µM, first compound 0.001 µM",101%
same,"viability, T/C","second compound 0.1 µM, first compound 0.00316 µM",107%
same,"viability, T/C","second compound 0.1 µM, first compound 0.01 µM",92.8%
same,"viability, T/C",[13],74.7%
same,"viability, T/C",[14],39.4%
same,"viability, T/C","second compound 0.316 µM, first compound 0.000316 µM",95.2%
same,"viability, T/C","second compound 0.316 µM, first compound 0.001 µM",84.7%
same,"viability, T/C","second compound 0.316 µM, first compound 0.00316 µM",90.8%
same,"viability, T/C","second compound 0.316 µM, first compound 0.01 µM",98.9%
same,"viability, T/C",[19],69.2%
same,"viability, T/C",[20],44.7%
same,"viability, T/C","second compound 1 µM, first compound 0.000316 µM",95.2%
same,"viability, T/C","second compound 1 µM, first compound 0.001 µM",92.8%
same,"viability, T/C","second compound 1 µM, first compound 0.00316 µM",82.4%
same,"viability, T/C","second compound 1 µM, first compound 0.01 µM",100%
same,"viability, T/C",[25],73.9%
same,"viability, T/C",[26],45.4%
same,"viability, T/C","second compound 3.16 µM, first compound 0.000316 µM",86%
same,"viability, T/C","second compound 3.16 µM, first compound 0.001 µM",91.4%
same,"viability, T/C","second compound 3.16 µM, first compound 0.00316 µM",98.5%
same,"viability, T/C","second compound 3.16 µM, first compound 0.01 µM",89.3%
same,"viability, T/C",[31],60.7%
same,"viability, T/C",[32],41.2%
same,"viability, T/C","second compound 10 µM, first compound 0.000316 µM",100%
same,"viability, T/C","second compound 10 µM, first compound 0.001 µM",75.1%
same,"viability, T/C","second compound 10 µM, first compound 0.00316 µM",70.4%
same,"viability, T/C","second compound 10 µM, first compound 0.01 µM",83.5%
same,"viability, T/C",[37],71.8%
same,"viability, T/C",[38],33.7%
CC1(C)CCC(CN2CCN(c3ccc(C(=O)NS(=O)(=O)c4ccc(NCC5CCOCC5)c([N+](=O)[O-])c4)c(Oc4cnc5[nH]ccc5c4)c3)CC2)=C(c2ccc(Cl)cc2)C1,"viability, T/C",compound 0.316 µM,106% [middle of 4 runs]
same,"viability, T/C",compound 1 µM,109% (2×) and 87% and 112%
same,"viability, T/C",compound 3.16 µM,98.7% [middle of 4 runs]
same,IC50,curve of compound,> 10 µM and 6.88 µM and 6.97 µM
